Test results from patent US20160297830A1, “NOVEL COMPOUNDS USEFUL FOR THE TREATMENT OF BACTERIAL INFECTIOUS DISEASES” (GALAPAGOS NV, priority 2013, published 2016).
Converted amounts (≈) assume the structure as drawn. Where two headings read alike, the source gives them in different places.

Legend:
[1] = test system: S. aureus Sa1 ATCC 13709; assay: microbe, parasite or virus in culture; format: cell-based; conditions: Staphylococcus aureus
[2] = test system: S. aureus Sa26 ATCC 25923; assay: Antibacterial activity assay (MIC), S. aureus Sa26; format: cell-based; conditions: Staphylococcus aureus
[3] = test system: S. aureus Sa4 NCTC 6571; assay: Antibacterial activity assay (MIC), S. aureus Sa4; format: cell-based; conditions: Staphylococcus aureus
[4] = test system: S. aureus Sa2 clinical strain NCIMB 41953, MRSA; assay: microbe, parasite or virus in culture; format: cell-based; conditions: Staphylococcus aureus, read-out: MIC Sa2
[5] = test system: H. influenza Hi3 ATCC 31517; assay: organism not typed; format: cell-based; conditions: read-out: MIC Hi3
[6] = test system: H. influenza Hi10 clinical strain; assay: organism not typed; format: cell-based; conditions: read-out: MIC Hi10
[7] = test system: H. influenza Hi47 clinical strain, Ampicillin Resistant; assay: organism not typed; format: cell-based; conditions: read-out: MIC Hi47
[8] = test system: H. influenza Hi106 ATCC 51907; assay: organism not typed; format: cell-based; conditions: read-out: MIC Hi106
[9] = test system: E. coli Ec1 ATCC 25922; assay: Antibacterial activity assay (MIC), E. coli Ec1; format: cell-based; conditions: Escherichia coli
[10] = test system: E. coli Ec50 efflux pump KO; assay: microbe, parasite or virus in culture; format: cell-based; conditions: Escherichia coli, read-out: MIC Ec50 efflux pump KO
[11] = test system: E. coli Ec113 efflux pump KO; assay: microbe, parasite or virus in culture; format: cell-based; conditions: Escherichia coli, read-out: MIC Ec113 efflux pump KO
[12] = target: DNA Polymerase IIIα (DnaE) from Staphylococcus aureus (Staphylococcus aureus, UniProt Q6GG04); assay: biochemical
[13] = target: DNA III Polymerase E (Escherichia coli, UniProt P10443); assay: In vitro activity against DNA III Polymerase E, E. coli; format: biochemical
Protocol: A radioactive filterplate assay was used to assess inhibitory activity of compounds on DNA Polymerase IIIα. Five μL of a dilution series of compound, starting from 100 μM highest concentration, 1/5 dilution, was added to the wells of a 96 well plate. Recombinant enzyme was diluted to 0.47 μg/mL in a buffer containing 20 mM Tris pH7.5, 8 mM DTT, 10 mM MgOAc, 0.05% CHAPS and 10 μL thereof was added to the compound dilutions. The reaction was started with the addition of 10 μL substrate in the same buffer, containing activated calf thymus DNA (Sigma, D4522), dATP, dGTP, dCTP, dTTP (Invitrogen) and [α-33P]-dTTP (Perkin Elmer, NEG605H001) at a concentration of 62.5 μg/mL, 50 nM and 7.5 μCi/mL respectively. The mixture was incubated at 30° C. for 120 minutes and terminated by addition of phosphoric acid. Samples were transferred to filter plates and incorporated radioactivity was measured by the Topcount. Data were converted to percent inhibition with respect to positive and negative controls. IC50 values were calculated using Graph Prism™ software.

[14] = ATCC13709, S. aureus Sa1 ATCC 13709, sensitive strain, Mueller-Hinton Broth, 37° C., read-out: MIC Sa1
[15] = ATCC25923, read-out: MIC Sa26 + 10% SH, S. aureus Sa26 + 10% SH
[16] = ATCC25923, read-out: MIC Sa26 + 50% SH, S. aureus Sa26 + 50% SH
[17] = ATCC25923, S. aureus Sa26 ATCC 25923, sensitive strain, Mueller-Hinton Broth, 37° C., read-out: MIC Sa26
[18] = NCTC6571, S. aureus Sa4 NCTC 6571, sensitive strain, read-out: MIC Sa4
[19] = ATCC25922, E. coli Ec1 ATCC 25922, sensitive strain, read-out: MIC Ec1
[20] = DNA polymerase III, S. aureus, read-out: IC50 semiquantitative scoring, S. aureus
[21] = DNA polymerase III, E. coli, read-out: IC50 semiquantitative scoring, E. coli

Sequence of DNA Polymerase IIIα (DnaE) from Staphylococcus aureus (Q6GG04 1-1022): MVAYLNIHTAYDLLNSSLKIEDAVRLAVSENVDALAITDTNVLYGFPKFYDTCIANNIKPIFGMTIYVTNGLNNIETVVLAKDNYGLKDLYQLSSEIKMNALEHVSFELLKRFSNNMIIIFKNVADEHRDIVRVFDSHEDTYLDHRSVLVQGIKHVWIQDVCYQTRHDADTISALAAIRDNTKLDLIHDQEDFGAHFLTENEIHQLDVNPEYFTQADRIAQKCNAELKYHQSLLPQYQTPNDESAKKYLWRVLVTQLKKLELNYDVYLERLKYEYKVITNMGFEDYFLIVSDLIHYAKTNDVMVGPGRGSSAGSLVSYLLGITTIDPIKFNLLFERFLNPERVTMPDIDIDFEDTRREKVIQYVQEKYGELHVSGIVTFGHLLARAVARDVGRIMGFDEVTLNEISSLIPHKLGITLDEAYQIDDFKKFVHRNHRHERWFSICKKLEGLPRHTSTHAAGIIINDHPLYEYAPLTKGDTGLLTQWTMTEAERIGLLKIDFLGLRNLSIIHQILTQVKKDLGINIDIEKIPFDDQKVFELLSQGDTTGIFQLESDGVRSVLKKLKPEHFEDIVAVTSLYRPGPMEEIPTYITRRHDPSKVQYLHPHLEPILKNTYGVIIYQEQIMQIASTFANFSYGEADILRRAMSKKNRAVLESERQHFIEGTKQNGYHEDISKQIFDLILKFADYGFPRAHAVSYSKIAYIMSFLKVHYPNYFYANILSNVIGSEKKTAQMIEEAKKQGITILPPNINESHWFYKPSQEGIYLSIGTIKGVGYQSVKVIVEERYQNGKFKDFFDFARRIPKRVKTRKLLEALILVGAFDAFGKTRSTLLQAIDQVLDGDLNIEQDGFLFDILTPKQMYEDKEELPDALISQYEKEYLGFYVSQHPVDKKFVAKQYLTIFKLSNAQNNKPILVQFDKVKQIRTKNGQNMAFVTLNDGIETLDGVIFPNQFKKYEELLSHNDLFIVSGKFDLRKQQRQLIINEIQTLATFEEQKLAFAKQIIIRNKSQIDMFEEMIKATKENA
Sequence of DNA III Polymerase E (P10443 whole entry): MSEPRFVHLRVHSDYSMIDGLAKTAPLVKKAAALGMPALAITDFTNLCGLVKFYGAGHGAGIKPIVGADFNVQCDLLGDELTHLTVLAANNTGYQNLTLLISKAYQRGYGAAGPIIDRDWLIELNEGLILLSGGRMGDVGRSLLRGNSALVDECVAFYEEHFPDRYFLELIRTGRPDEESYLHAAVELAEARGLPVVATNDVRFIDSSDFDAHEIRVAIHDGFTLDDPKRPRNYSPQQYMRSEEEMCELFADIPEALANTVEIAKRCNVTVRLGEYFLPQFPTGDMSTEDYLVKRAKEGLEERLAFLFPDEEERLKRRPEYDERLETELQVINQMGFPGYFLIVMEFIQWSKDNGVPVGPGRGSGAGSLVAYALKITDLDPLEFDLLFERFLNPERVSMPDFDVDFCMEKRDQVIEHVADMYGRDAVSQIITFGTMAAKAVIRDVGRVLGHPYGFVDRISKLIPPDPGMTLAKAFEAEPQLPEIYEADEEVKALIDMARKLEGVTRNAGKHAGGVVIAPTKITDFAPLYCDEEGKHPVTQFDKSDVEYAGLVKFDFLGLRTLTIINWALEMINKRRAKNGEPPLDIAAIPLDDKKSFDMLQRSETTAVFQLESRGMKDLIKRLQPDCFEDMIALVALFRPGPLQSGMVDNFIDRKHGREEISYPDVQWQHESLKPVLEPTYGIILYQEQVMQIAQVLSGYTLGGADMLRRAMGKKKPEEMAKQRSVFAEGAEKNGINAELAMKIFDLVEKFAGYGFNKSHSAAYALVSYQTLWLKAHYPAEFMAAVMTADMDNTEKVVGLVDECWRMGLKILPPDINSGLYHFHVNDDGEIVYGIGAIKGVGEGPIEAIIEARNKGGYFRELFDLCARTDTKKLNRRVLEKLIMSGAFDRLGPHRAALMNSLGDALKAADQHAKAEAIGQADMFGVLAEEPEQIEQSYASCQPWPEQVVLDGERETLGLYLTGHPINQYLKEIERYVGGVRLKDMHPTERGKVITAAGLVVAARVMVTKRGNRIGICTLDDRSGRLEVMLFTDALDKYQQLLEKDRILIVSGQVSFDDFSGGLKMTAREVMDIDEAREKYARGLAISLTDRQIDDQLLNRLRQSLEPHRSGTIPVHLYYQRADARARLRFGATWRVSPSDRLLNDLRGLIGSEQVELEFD

COC[C@@H]1[C@@H](O)[C@@H]2[C@H]3C=C[C@@H]4[C@@H](COC)C(=O)O[C@H]([C@H](O)COC)[C@H](C)/C=C(\C)[C@@]24O[C@H]3[C@@H]1OC(=O)c1ccoc1C [Compound 11, 8-O-2-Methylfurane-3′-carbonylbranimycin]
MIC [1, 14]: > 64 µg/mL | MIC [2, 15]: > 64 µg/mL | MIC [2, 16]: > 64 µg/mL | MIC [2, 17]: > 64 µg/mL | MIC [3, 18]: > 64 µg/mL | MIC [4]: > 64 µg/mL | MIC [5]: > 64 µg/mL | MIC [6]: > 64 µg/mL | MIC [7]: > 64 µg/mL | MIC [8]: > 64 µg/mL | MIC [9, 19]: > 64 µg/mL | MIC [10]: > 64 µg/mL | MIC [11]: 8 µg/mL (≈ 13.5 µM) | IC50 [12]: 1690 to 16900 nM | IC50 [13]: > 16900 nM

COC[C@@H]1[C@@H](O)[C@@H]2[C@H]3C=C[C@@H]4[C@@H](COC)C(=O)O[C@H]([C@H](O)COC)[C@H](C)/C=C(\C)[C@@]24O[C@H]3[C@@H]1OC(=O)c1ccsc1 [Compound 9, 8-O-Thiophene-3′-carbonylbranimycin]
MIC [1, 14]: 4 µg/mL (≈ 6.75 µM) | MIC [2, 15]: 2 µg/mL | MIC [2, 16]: 4 µg/mL | MIC [2, 17]: 2 µg/mL (≈ 3.37 µM) | MIC [3, 18]: 2 µg/mL (≈ 3.37 µM) | MIC [4]: 4 µg/mL (≈ 6.75 µM) | MIC [5]: > 64 µg/mL | MIC [6]: > 64 µg/mL | MIC [7]: > 64 µg/mL | MIC [8]: > 64 µg/mL | MIC [9, 19]: > 64 µg/mL | MIC [10]: > 64 µg/mL | MIC [11]: 4 µg/mL (≈ 6.75 µM) | IC50 [12, 20]: 1.69 to 1690 nM | IC50 [13, 21]: > 16900 nM

COC[C@@H](O)[C@H]1OC(=O)[C@H](COC)[C@H]2C=C[C@H]3[C@H]4O[C@]2(/C(C)=C/[C@H]1C)[C@@H]3[C@H](O)[C@@H](C)[C@H]4OC(=O)c1ccoc1 [Compound 7, 8-O-Furane-3′-carbonylbaleomycin]
MIC [1, 14]: 8 µg/mL (≈ 14.6 µM) | MIC [2, 15]: 16 µg/mL | MIC [2, 16]: 16 µg/mL | MIC [2, 17]: 16 µg/mL (≈ 29.3 µM) | MIC [3, 18]: 8 µg/mL (≈ 14.6 µM) | MIC [4]: 8 µg/mL (≈ 14.6 µM) | MIC [5]: > 64 µg/mL | MIC [6]: 64 µg/mL (≈ 117 µM) | MIC [7]: 64 µg/mL (≈ 117 µM) | MIC [8]: 64 µg/mL (≈ 117 µM) | MIC [9, 19]: > 64 µg/mL | MIC [10]: > 64 µg/mL | MIC [11]: 0.125 µg/mL (≈ 0.229 µM) | IC50 [12]: 1.83 to 1830 nM | IC50 [13]: 1.83 to 1830 nM

COC[C@@H]1[C@@H](O)[C@@H]2[C@H]3C=C[C@@H]4[C@@H](COC)C(=O)O[C@H]([C@@H](COC)OC)[C@H](C)/C=C(\C)[C@@]24O[C@H]3[C@@H]1OC(=O)c1ccc[nH]1 [Compound 18, 17-O-Methyl-8-O-1H-pyrrole-2′-carbonylbranimycin]
MIC ([1]; ATCC13709, read-out: MIC Sa1): 1 µg/mL (≈ 1.7 µM) | MIC ([2]; ATCC25923, read-out: MIC Sa26): 1 µg/mL (≈ 1.7 µM) | MIC ([2]; ATCC25923, read-out: MIC Sa26 + 10% SH): 1 µg/mL | MIC ([2]; ATCC25923, read-out: MIC Sa26 + 50% SH): 2 µg/mL | MIC ([3]; NCTC6571, read-out: MIC Sa4): 1 µg/mL (≈ 1.7 µM) | MIC [4]: 1 µg/mL (≈ 1.7 µM) | MIC [5]: > 64 µg/mL | MIC [6]: > 64 µg/mL | MIC [7]: > 64 µg/mL | MIC [8]: > 64 µg/mL | MIC ([9]; ATCC25922, read-out: MIC Ec1): > 64 µg/mL | MIC [10]: > 64 µg/mL | MIC [11]: 2 µg/mL (≈ 3.39 µM) | IC50 [12]: 1.7 to 1700 nM | IC50 [13, 21]: 1700 to 17000 nM

COC[C@@H]1[C@@H](O)[C@@H]2[C@H]3C=C[C@@H]4[C@@H](COC)C(=O)O[C@H]([C@H](O)COC)[C@H](C)/C=C(\C)[C@@]24O[C@H]3[C@@H]1OC(=O)c1ccon1 [Compound 13, 8-O-Isoxazole-3′-carbonylbranimycin]
MIC [1, 14]: > 64 µg/mL | MIC [2, 15]: > 64 µg/mL | MIC [2, 16]: > 64 µg/mL | MIC [2, 17]: > 64 µg/mL | MIC [3, 18]: 64 µg/mL (≈ 111 µM) | MIC [4]: > 64 µg/mL | MIC [5]: > 64 µg/mL | MIC [6]: > 64 µg/mL | MIC [7]: 64 µg/mL (≈ 111 µM) | MIC [8]: > 64 µg/mL | MIC [9, 19]: > 64 µg/mL | MIC [10]: 64 µg/mL (≈ 111 µM) | MIC [11]: 8 µg/mL (≈ 13.8 µM) | IC50 [12, 20]: 1730 to 17300 nM | IC50 [13, 21]: > 17300 nM

COC[C@@H]1[C@@H](O)[C@@H]2[C@H]3C=C[C@@H]4[C@@H](COC)C(=O)OC[C@H](C)/C=C(\C)[C@@]24O[C@H]3[C@@H]1OC(=O)c1ccc[nH]1 [Compound 22, 17,18-Dinor-8-O-1H-pyrrole-2′-carbonybranimycin]
MIC [1, 14]: 4 µg/mL (≈ 7.97 µM) | MIC [2, 15]: 4 µg/mL | MIC [2, 16]: 8 µg/mL | MIC [2, 17]: 4 µg/mL (≈ 7.97 µM) | MIC [3, 18]: 2 µg/mL (≈ 3.99 µM) | MIC [4]: 4 µg/mL (≈ 7.97 µM) | MIC [5]: > 64 µg/mL | MIC [6]: > 64 µg/mL | MIC [7]: > 64 µg/mL | MIC [8]: > 64 µg/mL | MIC [9, 19]: > 64 µg/mL | MIC [10]: > 64 µg/mL | MIC [11]: 8 µg/mL (≈ 15.9 µM) | IC50 [12]: 1.99 to 1990 nM | IC50 [13]: > 19900 nM

COCC[C@H]1OC(=O)[C@H](COC)[C@H]2C=C[C@H]3[C@H]4O[C@]2(/C(C)=C/[C@H]1C)[C@@H]3[C@H](O)[C@@H](COC)[C@H]4O [Compound 17, 17-Deoxybranimycin]
MIC [1, 14]: > 64 µg/mL | MIC [2, 15]: > 64 µg/mL | MIC [2, 16]: > 64 µg/mL | MIC [2, 17]: > 64 µg/mL | MIC [3, 18]: > 64 µg/mL | MIC [4]: > 64 µg/mL | MIC [5]: > 64 µg/mL | MIC [6]: > 64 µg/mL | MIC [7]: > 64 µg/mL | MIC [8]: > 64 µg/mL | MIC [9, 19]: > 64 µg/mL | MIC [10]: > 64 µg/mL | MIC [11]: 8 µg/mL (≈ 17.1 µM) | IC50 [12, 20]: 2.14 to 2140 nM | IC50 [13, 21]: > 21400 nM

COC[C@@H](O)[C@H]1OC(=O)[C@H](COC)[C@H]2C=C[C@H]3[C@H]4O[C@]2(/C(C)=C/[C@H]1C)[C@@H]3[C@H](O)[C@@H](C)[C@H]4O [Compound 1, Baleomycin]
MIC [1, 14]: > 64 µg/mL | MIC [2, 15]: > 64 µg/mL | MIC [2, 16]: > 64 µg/mL | MIC [2, 17]: > 64 µg/mL | MIC [3, 18]: > 64 µg/mL | MIC [4]: > 64 µg/mL | MIC [5]: > 64 µg/mL | MIC [6]: > 64 µg/mL | MIC [7]: 64 µg/mL (≈ 141 µM) | MIC [8]: 64 µg/mL (≈ 141 µM) | MIC [9, 19]: > 64 µg/mL | MIC [10]: 2 µg/mL (≈ 4.42 µM) | MIC [11]: 0.5 µg/mL (≈ 1.1 µM) | IC50 [12]: 2210 to 22100 nM | IC50 [13]: 2210 to 22100 nM
